Reference: patent publication US5114967A, “Antibiotic alisamycin and its use” (Hoechst Aktiengesellschaft, priority 1990, dated 1992)
≈ marks a conversion by molar mass, not a printed value.

Tests used:
Piriicularia oryzae [1] = assay: agar-well method in Antibiotic Assay medium; assay type: cell-based
Piriicularia oryzae [2] = assay type: cell-based
solubility = assay type: physicochemical
gram-positive bacteria = assay: antibacterial activity (general statement); assay type: cell-based
gram-negative bacteria = assay: antibacterial activity (general statement); assay type: cell-based
[3] = test system: Staphylococcus aureus 209 p; assay: agar-well method in Antibiotic Assay medium; details: read-out: Zone diam
[4] = test system: Staphylococcus aureus 20424; assay: agar-well method in Antibiotic Assay medium; details: Staphylococcus aureus, 20424, read-out: Zone diam
[5] = test system: Staphylococcus aureus E88; assay: agar-well method in Antibiotic Assay medium; details: E88, read-out: Zone diam
[6] = test system: Streptococcus faecalis UD8b; assay: agar-well method in Antibiotic Assay medium; details: Enterococcus faecalis, read-out: Zone diam
[7] = test system: Streptococcus faecalis Eder; assay: agar-well method in Antibiotic Assay medium; details: Enterococcus faecalis, read-out: Zone diam
[8] = test system: Streptococcus faecalis 23241; assay: agar-well method in Antibiotic Assay medium; details: Enterococcus faecalis, 23241, read-out: Zone diam
Candida albicans [9] = assay: agar-well method in Antibiotic Assay medium; details: read-out: Zone diam
Botrytis cinerea 47 [10] = assay: agar-well method in Antibiotic Assay medium; details: Botrytis cinerea, 47, read-out: Zone diam
[11] = test system: Staphylococcus aureus 209 p
[12] = test system: Staphylococcus aureus 20424
[13] = test system: Staphylococcus aureus E88
[14] = test system: Streptococcus faecalis UD8b; details: Enterococcus faecalis
[15] = test system: Streptococcus faecalis Eder; details: Enterococcus faecalis
[16] = test system: Streptococcus faecalis 23241; details: Enterococcus faecalis
Candida albicans [17] = test system: Candida albicans
Botrytis cinerea 47 [18] = test system: Botrytis cinerea 47

O=C(/C=C/C=C/C1CCCCC1)NC1=CC(O)(/C=C/C=C/C=C/C(=O)NC2=C(O)CCC2=O)C2OC2C1=O (centres unmarked) [Alisamycin]
zone of inhibition at 32 µg/mL (Piriicularia oryzae [1]; 32 μg/ml): 11 mm
zone of inhibition at 500 µg/mL (Piriicularia oryzae [1]; 500 μg/ml): 15 mm
MIC (Piriicularia oryzae [2]): > 50 µg/mL
solubility (solubility; acetonitrile): fairly soluble
solubility (solubility; chloroform): fairly soluble
solubility (solubility; dimethylsulfoxide): very soluble
solubility (solubility; ethanol): poorly soluble
solubility (solubility; ethyl acetate): fairly soluble
solubility (solubility; hexane): poorly soluble
solubility (solubility; methanol): poorly soluble
solubility (solubility; methylene chloride): fairly soluble
solubility (solubility; petroleum ether): poorly soluble
solubility (solubility; propylene glycol): very soluble
solubility (solubility; water): poorly soluble
activity against gram-positive bacteria (gram-positive bacteria): active
activity against gram-negative bacteria (gram-negative bacteria): active
antitumor activity (antitumor activity): found to have antitumor
antiparasitic activity (antiparasitic activity): antiparasitic activities
zone of inhibition at 32 µg/mL [3]: 18.5 mm
zone of inhibition at 500 µg/mL [3]: 26 mm
zone of inhibition at 32 µg/mL [4]: 19 mm
zone of inhibition at 500 µg/mL [4]: 25 mm
zone of inhibition at 32 µg/mL [5]: 14 mm
zone of inhibition at 500 µg/mL [5]: 27 mm
zone of inhibition at 32 µg/mL [6]: 13 mm
zone of inhibition at 500 µg/mL [6]: 16 mm
zone of inhibition at 32 µg/mL [7]: 16 mm
zone of inhibition at 500 µg/mL [7]: 23 mm
zone of inhibition at 32 µg/mL [8]: 13 mm
zone of inhibition at 500 µg/mL [8]: 22 mm
zone of inhibition at 500 µg/mL (Candida albicans [9]): 10 mm
zone of inhibition at 500 µg/mL (Botrytis cinerea 47 [10]): 20 mm
MIC [11]: 1.6 µg/mL (≈ 3.07 µM)
MIC [12]: 3.2 µg/mL (≈ 6.15 µM)
MIC [13]: 6.4 µg/mL (≈ 12.3 µM)
MIC [14]: > 50 µg/mL
MIC [15]: 6.4 µg/mL (≈ 12.3 µM)
MIC [16]: 6.4 µg/mL (≈ 12.3 µM)
MIC (Escherichia coli 9632): > 50 µg/mL
MIC (Candida albicans [17]): 50 µg/mL (≈ 96 µM)
MIC (Botrytis cinerea 47 [18]): > 50 µg/mL
